Source: publication PMC7617456, “Cryptosporidium lysyl-tRNA synthetase inhibitors define the interplay between solubility and permeability required to achieve efficacy” (Science translational medicine, 2024)
Where two headings read alike, the source gives them in different places.

What was measured:
[1] = biological target: T1, 5-HT transporter (h) (Homo sapiens, UniProt P31645); assay: SafetyScreen44 panel: 5-HT transporter; type: binding
T1 construct: Eurofins Cerep
From the text: (§1) As previously described.(31)
Table S2. ADME properties and in vitro assessment of toxicity/off-target effects for DDD489 and […]
Data are from a single biological replicate. (A) In vitro ADME properties. FaSSIF is Fasted State Simulated Intestinal Fluid Solubility. MDCK-MDR1 is a Madin-Darby canine kidney cell line transfected with the MDR1 gene, encoding for the efflux protein, P-glycoprotein (P-gp). Papp is apparent permeability, measured in the presence of P-gp inhibitor, GF120918. Efflux ratio is calculated as the ratio of Papp B-A/A-B. CHIlogD is chromatographic hydrophobicity index logD, measured at pH 7.4. clogP is calculated logP, determined by […]
Heps Cli is liver hepatocyte intrinsic clearance,
PPB is plasma protein binding.
Data quoted is percent bound. M=mouse, r=rat, d=dog, b=bovine, h=human. (B) In vitro toxicity assays. Cyp450
IC50 is cytochrome p450 enzyme inhibition. Mini-Ames was conducted in the presence and absence of S9 mix in four strains of Salmonella typhimurium. hERG IC50 is human ether-a-go-go related gene inhibition, measured using manual patch-clamp technique. (C) Mitochondrial toxicity assay data. (D) In a safety p anel of receptors and […]

[2] = system: C. parvum; assay: microbe, parasite or virus in culture; type: cell-based, Cryptosporidium parvum; conditions: for EC90: HCT-8, read-out: C. parvum EC90
[3] = PAMPA permeability; type: in vitro ADME; conditions: for Papp at 5 h, 10 µM: PAMPA, pH 7.4, pH 7.4
Description: Solubility test samples were prepared by adding 5 μL stock to PBS pH 7.4 (195 μL). […] […] vacuum […] (Millipore Multiscreen HTS fi lter, 96-well format) to remove any undissolved material. The […] analyzed for dissolved drug compound using a truncated UHPLC methodology. A calibration solution was prepared for each test compound. […] Aliquots of the test sample […] (0.4 and 5.0 μL) were injected onto the UHPLC system and the resultant test compound peak areas quantifi ed […] PAMPA per meability As previously described.(28) The permeability assay was performed using a 96-well precoated BD Gentest PAMPA plate (BD Biosciences). Each well was divided into two chambers: donor and acceptor, separated by a lipid-oil-lipid trilayer constructed in a porous fi lter. […] Stock solutions (5 mM) of the compound were prepared in DMSO. […] The compound dissolved in phosphate buffered saline was added to the donor side of the membrane, and phosphate-buffered saline without the compound was added to the acceptor side. The PAMPA plate was left at room temperature for 5 h then an aliquot (100 μL) was removed from both acceptor and donor compartments and mixed with acetonitrile (80 μL) containing an internal standard: donepezil at 50 ng/mL. The samples were centrifuged (10 min, 5 °C, 3270×g) to sediment lipids and sealed prior to UPLC-MS/MS analysis using a Quattro Premier XE (Waters Corp, USA). Recovery of the compound from donor and acceptor wells was calculated, and data were only accepted when recovery exceeded 70%.

[4] = system: C. hominis; assay: C. hominis growth inhibition in HCT-8 co-culture (image-based); conditions: Cryptosporidium hominis, HCT-8, 48 h, read-out: C. hominis EC50
Description: Cryptosporidium in vitro inhibition (Vermont and Dundee)
Compounds were prepared in 100% DMSO and added at the time of infection (NLuc) or 3 hours post infection (imaging assays). Compounds were prepared at 1% final concentration DMSO in culture. Parasites were quantified at 48 hours post infection. NanoLuciferase was measured using a GloMax Discovery, Promega.
A Nikon Ecl ipse Ti2000 epifluorescence microscope with an automated stage was programmed to focus on the center of each well and take a 3×3 composite image using an EXi blue fluorescence microscopy camera (QImaging) with a 20X objective (NA = 0.45). Nuclei and parasite images were separately exported as .tif files, and parasites and host cells were counted using custom NIH ImageJ macros as reported previously.(29) Dose−response curves were

[5] = biological target: CYP450 1A2 (Homo sapiens, UniProt P05177); assay: CYP450 inhibition 1A2; type: in vitro ADME
CYP450 1A2, sequence (P05177 whole entry): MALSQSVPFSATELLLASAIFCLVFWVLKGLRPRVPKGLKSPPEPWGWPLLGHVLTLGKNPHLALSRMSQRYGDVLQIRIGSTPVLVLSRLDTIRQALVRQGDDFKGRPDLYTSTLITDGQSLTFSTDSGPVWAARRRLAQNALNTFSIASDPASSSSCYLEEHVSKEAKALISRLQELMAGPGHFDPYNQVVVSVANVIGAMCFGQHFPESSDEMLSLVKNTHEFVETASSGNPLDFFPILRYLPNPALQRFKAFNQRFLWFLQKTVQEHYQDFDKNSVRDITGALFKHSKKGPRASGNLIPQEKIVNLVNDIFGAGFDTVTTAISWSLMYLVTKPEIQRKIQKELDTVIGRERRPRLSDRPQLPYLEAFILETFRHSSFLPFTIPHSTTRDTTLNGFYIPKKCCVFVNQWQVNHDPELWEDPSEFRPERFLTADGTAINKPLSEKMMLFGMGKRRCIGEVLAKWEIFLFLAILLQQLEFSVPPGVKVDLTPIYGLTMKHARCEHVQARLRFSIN
Description: (§2) CYP450 inhibition (Dundee)
as §1
(§3) DDD489 and DDD508 were evaluated for their ability to induce reverse mutations both in the presence and absence of S9 mix at the histidine locus in the genome of four strains of Salmonella typhimurium (TA98, TA100, TA1535, and TA97a) and at the tryptophan locus in the genome of Escherichia coli WP2 uvrA in a mini-Ames study conducted at WuXi App Tec […]
(§4) hERG inhibition (WuXi App Tec)
(§5) DDD489 and DDD508 were evaluated for their effects on cloned hERG potassium channels stably expressed in Chinese Hamster Ovary (CHO) cells using manual patch-clamp technique in a hERG inhibition assay conducted at WuXi App Tec (Suzhou).
(§6) Mitochondrial toxicity (Cyprotex)
(§7) DDD489 and DDD508 were evaluated for their effects on mitochondrial function in a functional mitochondrial toxicity assay using Seahorse XFe96 flux analyser conducted at […]
(§8) 44 screen safety panel (Eurofins)
(§9) DDD489 was evaluated for off-target effects in a SafetyScreen44 panel at Eurofins Cerep.
(§10) All regulated procedures, at the University of Dundee, on living animals were carried out under the authority of a project license issued by the Home Office under the Animals (Scientific Procedures) Act 1986, as amended in 2012 (and in compliance with EU Directive EU/2010/63). […]

[6] = biological target: CYP450 2D6 (Homo sapiens, UniProt P10635); assay: CYP450 inhibition 2D6; type: in vitro ADME
CYP450 2D6, sequence (P10635 whole entry): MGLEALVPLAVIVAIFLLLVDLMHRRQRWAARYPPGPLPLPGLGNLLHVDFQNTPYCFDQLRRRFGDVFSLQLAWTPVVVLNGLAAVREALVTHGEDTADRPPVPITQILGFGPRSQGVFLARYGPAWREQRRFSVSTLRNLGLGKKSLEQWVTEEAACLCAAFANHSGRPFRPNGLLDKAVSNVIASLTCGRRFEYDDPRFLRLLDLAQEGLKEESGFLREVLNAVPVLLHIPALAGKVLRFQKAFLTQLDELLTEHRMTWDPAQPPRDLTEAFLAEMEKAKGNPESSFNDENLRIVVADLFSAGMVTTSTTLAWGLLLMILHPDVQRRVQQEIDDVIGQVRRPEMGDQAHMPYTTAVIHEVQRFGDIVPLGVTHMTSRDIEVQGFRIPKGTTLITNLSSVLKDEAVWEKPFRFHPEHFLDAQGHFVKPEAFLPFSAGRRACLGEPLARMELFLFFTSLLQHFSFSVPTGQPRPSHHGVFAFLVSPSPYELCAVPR
Description: as §2, §1, §3, §4, §5, §6, §7, §8, §9, §10

[7] = biological target: CYP450 3A4 (Homo sapiens, UniProt P08684); assay: CYP450 inhibition 3A4; type: in vitro ADME
CYP450 3A4, sequence (P08684 whole entry): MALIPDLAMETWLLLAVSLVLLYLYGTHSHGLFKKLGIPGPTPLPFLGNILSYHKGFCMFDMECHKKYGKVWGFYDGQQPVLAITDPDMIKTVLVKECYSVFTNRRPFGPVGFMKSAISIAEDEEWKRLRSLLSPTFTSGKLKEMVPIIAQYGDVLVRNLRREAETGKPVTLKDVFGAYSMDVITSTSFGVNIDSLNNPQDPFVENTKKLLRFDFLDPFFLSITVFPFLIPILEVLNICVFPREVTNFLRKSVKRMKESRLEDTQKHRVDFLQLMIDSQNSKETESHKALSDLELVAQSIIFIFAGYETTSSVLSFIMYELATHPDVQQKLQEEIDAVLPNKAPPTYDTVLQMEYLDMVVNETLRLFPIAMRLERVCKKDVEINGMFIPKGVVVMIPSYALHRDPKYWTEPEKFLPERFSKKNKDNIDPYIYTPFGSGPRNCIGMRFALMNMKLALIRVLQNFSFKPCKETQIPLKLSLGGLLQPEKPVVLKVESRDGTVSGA
Description: as §2, §1, §3, §4, §5, §6, §7, §8, §9, §10

[8] = biological target: CYP450 2C19 (Homo sapiens, UniProt P33261); assay: CYP450 inhibition 2C19; type: in vitro ADME
CYP450 2C19, sequence (P33261 whole entry): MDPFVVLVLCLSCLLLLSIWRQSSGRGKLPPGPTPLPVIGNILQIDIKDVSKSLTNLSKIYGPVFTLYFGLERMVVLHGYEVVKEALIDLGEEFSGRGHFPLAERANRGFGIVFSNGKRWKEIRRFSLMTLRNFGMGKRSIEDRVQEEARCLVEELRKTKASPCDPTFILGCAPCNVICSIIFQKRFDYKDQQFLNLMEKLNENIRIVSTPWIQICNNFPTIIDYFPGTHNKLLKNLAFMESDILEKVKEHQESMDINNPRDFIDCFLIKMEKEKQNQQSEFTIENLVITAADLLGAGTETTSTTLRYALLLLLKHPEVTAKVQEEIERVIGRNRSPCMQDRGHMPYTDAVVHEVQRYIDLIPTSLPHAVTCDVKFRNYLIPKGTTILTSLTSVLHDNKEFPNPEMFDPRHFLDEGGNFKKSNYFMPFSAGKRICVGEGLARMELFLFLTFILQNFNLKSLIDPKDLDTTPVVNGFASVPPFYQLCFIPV
Description: as §2, §1, §3, §4, §5, §6, §7, §8, §9, §10

[9] = Dog pharmacokinetics; type: in vivo
Description: Dog pharmacokinetics (WuXi App Tec)
As for mouse except using male beagle dogs (IV dose volume: 3 mg/mL; dose vehicle: 10% DMSO, 40% PEG400, 50% (40%HP-β-CD in water); PO dose volume: 2 mg/mL; dose vehicle: 1% CMC-Na(800-1200)+0.2% Tween 80 in water). Pharmacokinetic parameters were derived from the blood concentration-time curve using WinNonLin Professional Software v 6.3 (Pharsight Corporation). […]

[10] = biological target: CYP450 2C9 (Homo sapiens, UniProt P11712); assay: CYP450 inhibition 2C9; type: in vitro ADME
CYP450 2C9, sequence (P11712 whole entry): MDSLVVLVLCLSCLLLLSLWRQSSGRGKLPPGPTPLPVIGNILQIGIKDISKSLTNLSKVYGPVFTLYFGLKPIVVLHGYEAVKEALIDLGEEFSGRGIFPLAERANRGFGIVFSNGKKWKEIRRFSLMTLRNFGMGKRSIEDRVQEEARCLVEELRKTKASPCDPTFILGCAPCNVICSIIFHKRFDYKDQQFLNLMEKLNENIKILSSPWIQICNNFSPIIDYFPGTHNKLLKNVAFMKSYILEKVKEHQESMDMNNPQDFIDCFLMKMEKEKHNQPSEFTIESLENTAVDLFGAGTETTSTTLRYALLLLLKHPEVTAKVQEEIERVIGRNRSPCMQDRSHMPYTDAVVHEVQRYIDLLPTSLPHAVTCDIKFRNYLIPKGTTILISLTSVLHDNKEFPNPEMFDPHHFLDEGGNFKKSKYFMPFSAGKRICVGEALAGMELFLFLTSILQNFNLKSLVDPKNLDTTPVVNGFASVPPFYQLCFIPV
Description: as §2, §1, §3, §4, §5, §6, §7, §8, §9, §10

[11] = biological target: CpKRS (Cryptosporidium parvum, UniProt Q5CR27); assay: CpKRS in vitro enzyme assay
CpKRS, sequence (Q5CR27 entry or part of it): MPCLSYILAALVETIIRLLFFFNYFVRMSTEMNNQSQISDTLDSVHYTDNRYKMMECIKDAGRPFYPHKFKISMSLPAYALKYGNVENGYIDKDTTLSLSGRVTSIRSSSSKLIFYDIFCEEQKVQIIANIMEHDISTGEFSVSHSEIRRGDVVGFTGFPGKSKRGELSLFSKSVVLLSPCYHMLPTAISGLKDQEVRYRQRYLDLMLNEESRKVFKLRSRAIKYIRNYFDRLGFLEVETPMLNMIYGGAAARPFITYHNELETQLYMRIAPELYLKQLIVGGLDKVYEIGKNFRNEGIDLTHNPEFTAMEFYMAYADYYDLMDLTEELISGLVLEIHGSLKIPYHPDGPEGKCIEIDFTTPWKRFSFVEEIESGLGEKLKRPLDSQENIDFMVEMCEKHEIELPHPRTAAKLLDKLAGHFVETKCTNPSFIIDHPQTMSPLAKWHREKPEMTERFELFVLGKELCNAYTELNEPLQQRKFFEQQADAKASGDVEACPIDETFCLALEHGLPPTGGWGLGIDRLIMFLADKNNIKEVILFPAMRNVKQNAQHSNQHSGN
Description: CpKRS in vitro enzyme assay (Dundee)
Potency of compounds was determined in 10-point dose-response inhibition curves.
Echo 550 acoustic dispenser (Labcyte). KRS reactions were started by adding enzyme into wells containing substrate and compounds using a Thermo Scientiﬁ c Matrix Wellmate. KRS assays were run in 50 µL reactions (Final concentration: 100 mM HEPES*K pH 7.4, 20 mM
Pyrophosphatase) at room temperature for 7 h. Reactions were stopped by the addition of Biomol green (50 µL: Enzo Life Sciences) with the amount of free phosphate detected by
Samples were all run in duplicate and data was processed and analyzed using ActivityBase

[12] = system: KRS-OE; assay: Transgenic C. parvum NanoLuciferase drug sensitivity assay, KRS-OE; type: cell-based; conditions: Cryptosporidium parvum, HCT-8, 48 h, read-out: EC50, KRS-OE
[13] = Cryptosporidium parvum, HCT-8, 48 h, read-out: C. parvum EC50, co-cultured with HCT-8 cells for 48 hrs
[14] = read-out: C. parvum EC50, co-cultured with HCT-8 cells for 48 hrs
[15] = male, beagle, whole blood, dog PO 10 mg/kg

T1 sequence (P31645 whole entry): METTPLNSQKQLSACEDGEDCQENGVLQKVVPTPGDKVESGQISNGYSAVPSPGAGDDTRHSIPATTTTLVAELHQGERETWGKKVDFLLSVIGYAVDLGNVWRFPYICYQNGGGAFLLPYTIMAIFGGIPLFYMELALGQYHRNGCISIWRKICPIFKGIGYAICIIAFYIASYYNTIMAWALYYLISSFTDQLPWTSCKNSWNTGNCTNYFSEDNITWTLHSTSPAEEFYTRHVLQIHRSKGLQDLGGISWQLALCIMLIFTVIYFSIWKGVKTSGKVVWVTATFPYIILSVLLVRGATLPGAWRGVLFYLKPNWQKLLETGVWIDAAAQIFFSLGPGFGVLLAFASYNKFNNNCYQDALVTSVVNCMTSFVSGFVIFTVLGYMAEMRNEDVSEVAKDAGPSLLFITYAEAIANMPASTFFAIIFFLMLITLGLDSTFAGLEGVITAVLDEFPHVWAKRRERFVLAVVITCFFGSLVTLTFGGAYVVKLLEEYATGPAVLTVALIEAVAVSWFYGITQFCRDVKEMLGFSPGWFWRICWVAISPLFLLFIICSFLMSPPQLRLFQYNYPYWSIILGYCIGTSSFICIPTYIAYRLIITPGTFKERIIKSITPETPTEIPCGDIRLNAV

Work on `Nc1nc2c(c(C(F)(F)F)n1)C(=O)N(CC1CCCC(C(F)(F)F)C1)C2` (stereo not shown) [DDD489] yielded an inhibition at 10 µM [1] of 62%, an EC50 [2, 13] of 0.043 µM and an EC90 ([2]; Cryptosporidium parvum) of 0.1 µM. It also gave an EC50 [2, 14] of 0.04 µM, a Papp at 5 h, 10 µM [3] of 17.1 ×10⁻⁶ cm/s and an EC50 [4] of 0.04 µM. The IC50 [5] was 40 µM, the IC50 [6] was 8 µM and the IC50 [7] was greater than 100 µM. It also gave an IC50 [8] greater than 100 µM, a CLB ([9]; dog IV 3 mg/kg, clearance in blood) of 52 mL/min/kg and a half-life ([9]; male, beagle, whole blood, 3 mg/kg, dog, IV, read-out: T½ (converted)) of 1.7 h. For the same compound, the Vd ([9]; male, beagle, whole blood, 3 mg/kg, dog, IV, read-out: Vdss) was 4.2 L/kg, the AUC ([9]; male, beagle, whole blood, dog IV 3 mg/kg) was 1000 ng·h/mL and the AUC [9, 15] was 667 ng·h/mL. For the same compound, the Cmax [9, 15] was 200 ng/mL, the Tmax [9, 15] was 1.2 h and the bioavailability ([9]; male, beagle, whole blood, dog PO 10 mg/kg, read-out: F (oral bioavailability)) was 18%. For the same compound, the IC50 [10] was 32 µM, the IC50 [11] was 0.85 µM and the EC50 [12] was 0.978 µM.
Work on `O=C(NCC1(O)CCCCC1)c1cc(=O)c2cc(O)ccc2o1` [DDD508] yielded an EC50 [2, 13] of 0.132 µM, an EC90 ([2]; Cryptosporidium parvum) of 0.38 µM and an EC50 [2, 14] of 0.13 µM. For the same compound, the Papp at 5 h, 10 µM [3] was 0.69 ×10⁻⁶ cm/s, the “PAMPA Papp” value ([3]; pH 7.4) was 0.7 ×10⁻⁶ cm/s and the EC50 [4] was 0.1 µM. The IC50 [5] was greater than 100 µM, the IC50 [6] was greater than 100 µM and the IC50 [7] was greater than 100 µM. The IC50 [8] was greater than 100 µM, the IC50 [10] was greater than 100 µM and the IC50 [11] was 1.7 µM. For the same compound, the EC50 [12] was greater than 1 µM.
